# Laboratory results taken from ChEMBL document CHEMBL3259563, “The discovery of potent and selective non-steroidal glucocorticoid receptor modulators, suitable for inhalation” (Bioorg Med Chem Lett, 2014).
# What was measured:
# [1] = molecular target: T1, Cytochrome P450 1A2 (Homo sapiens, UniProt P05177); assay: Inhibition of CYP1A2 (unknown origin); assay type: ADME
# T1 sequence (P05177 whole entry): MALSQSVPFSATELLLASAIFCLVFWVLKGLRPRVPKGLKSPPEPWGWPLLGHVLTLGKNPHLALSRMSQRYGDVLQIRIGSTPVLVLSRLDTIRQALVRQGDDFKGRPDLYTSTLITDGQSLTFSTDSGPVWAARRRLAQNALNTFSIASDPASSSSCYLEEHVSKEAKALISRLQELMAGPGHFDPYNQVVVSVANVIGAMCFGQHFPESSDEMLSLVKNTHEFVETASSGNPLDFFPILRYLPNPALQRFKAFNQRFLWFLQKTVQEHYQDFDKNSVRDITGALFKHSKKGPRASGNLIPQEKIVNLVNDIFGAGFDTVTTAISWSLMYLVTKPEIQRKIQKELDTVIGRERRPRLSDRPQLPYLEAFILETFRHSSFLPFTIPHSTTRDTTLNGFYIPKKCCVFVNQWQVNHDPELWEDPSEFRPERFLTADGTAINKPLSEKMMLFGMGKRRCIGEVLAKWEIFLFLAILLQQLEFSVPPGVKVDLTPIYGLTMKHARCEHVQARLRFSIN
# [2] = Lipophilicity, log D of the compound at pH 7.4; assay type: physicochemical; details: buffer
# [3] = Thermodynamic solubility of the crystalline compound in 0.1 M phosphate buffer at pH 7.4 at 25 degC after 24 hrs; assay type: physicochemical; details: read-out: Therm_solubility
# [4] = Volume of distribution at steady state in iv dosed rat; assay type: ADME, organism-based; details: in vivo, read-out: Vdss
# [5] = molecular target: T2, Androgen receptor (Homo sapiens, UniProt P10275); assay: Binding affinity to androgen receptor (unknown origin)
# T2 sequence (P10275 whole entry): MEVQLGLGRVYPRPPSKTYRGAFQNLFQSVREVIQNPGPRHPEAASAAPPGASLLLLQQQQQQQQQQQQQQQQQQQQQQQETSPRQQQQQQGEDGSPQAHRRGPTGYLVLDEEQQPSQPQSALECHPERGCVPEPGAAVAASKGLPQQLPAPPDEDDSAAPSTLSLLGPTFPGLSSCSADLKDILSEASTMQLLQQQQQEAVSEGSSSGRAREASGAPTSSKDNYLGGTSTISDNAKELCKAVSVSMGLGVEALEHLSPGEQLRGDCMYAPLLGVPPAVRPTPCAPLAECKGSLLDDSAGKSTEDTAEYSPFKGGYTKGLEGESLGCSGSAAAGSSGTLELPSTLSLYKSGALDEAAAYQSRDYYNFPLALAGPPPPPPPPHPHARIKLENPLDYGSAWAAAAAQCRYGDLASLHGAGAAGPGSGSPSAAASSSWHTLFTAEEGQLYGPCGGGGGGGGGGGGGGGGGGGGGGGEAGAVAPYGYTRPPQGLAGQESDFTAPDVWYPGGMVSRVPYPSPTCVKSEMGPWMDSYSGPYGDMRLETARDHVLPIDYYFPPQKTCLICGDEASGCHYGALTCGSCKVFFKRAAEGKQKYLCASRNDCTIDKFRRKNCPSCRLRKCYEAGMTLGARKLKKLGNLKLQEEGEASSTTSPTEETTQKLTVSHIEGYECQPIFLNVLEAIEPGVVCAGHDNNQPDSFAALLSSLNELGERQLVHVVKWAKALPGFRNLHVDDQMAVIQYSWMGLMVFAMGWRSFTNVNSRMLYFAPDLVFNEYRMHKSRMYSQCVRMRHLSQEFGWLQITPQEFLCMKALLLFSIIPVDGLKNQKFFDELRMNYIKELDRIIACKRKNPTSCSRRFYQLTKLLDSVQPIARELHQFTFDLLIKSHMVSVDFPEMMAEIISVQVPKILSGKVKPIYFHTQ
# [6] = molecular target: T3, Estrogen receptor (Homo sapiens, UniProt P03372); assay: Binding affinity to ER-alpha (unknown origin)
# T3 sequence (P03372 whole entry): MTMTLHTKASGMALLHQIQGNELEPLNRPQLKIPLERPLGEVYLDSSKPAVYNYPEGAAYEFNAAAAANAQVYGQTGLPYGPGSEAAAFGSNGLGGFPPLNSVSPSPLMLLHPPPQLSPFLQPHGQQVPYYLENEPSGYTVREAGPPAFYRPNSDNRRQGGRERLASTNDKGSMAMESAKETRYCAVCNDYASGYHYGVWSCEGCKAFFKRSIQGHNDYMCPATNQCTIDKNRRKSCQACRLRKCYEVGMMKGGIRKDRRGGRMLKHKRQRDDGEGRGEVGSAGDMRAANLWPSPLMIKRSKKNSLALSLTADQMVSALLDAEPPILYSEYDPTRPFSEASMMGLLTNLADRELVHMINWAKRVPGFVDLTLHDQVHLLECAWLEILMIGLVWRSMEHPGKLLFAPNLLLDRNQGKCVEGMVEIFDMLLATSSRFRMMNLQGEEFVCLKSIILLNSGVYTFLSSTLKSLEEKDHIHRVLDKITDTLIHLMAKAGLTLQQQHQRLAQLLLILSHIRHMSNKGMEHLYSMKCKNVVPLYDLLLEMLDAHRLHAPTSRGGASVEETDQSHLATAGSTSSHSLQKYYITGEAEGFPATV
# [7] = molecular target: T4, Progesterone receptor (Homo sapiens, UniProt P06401); assay: Binding affinity to progesterone receptor (unknown origin)
# T4 sequence (P06401 whole entry): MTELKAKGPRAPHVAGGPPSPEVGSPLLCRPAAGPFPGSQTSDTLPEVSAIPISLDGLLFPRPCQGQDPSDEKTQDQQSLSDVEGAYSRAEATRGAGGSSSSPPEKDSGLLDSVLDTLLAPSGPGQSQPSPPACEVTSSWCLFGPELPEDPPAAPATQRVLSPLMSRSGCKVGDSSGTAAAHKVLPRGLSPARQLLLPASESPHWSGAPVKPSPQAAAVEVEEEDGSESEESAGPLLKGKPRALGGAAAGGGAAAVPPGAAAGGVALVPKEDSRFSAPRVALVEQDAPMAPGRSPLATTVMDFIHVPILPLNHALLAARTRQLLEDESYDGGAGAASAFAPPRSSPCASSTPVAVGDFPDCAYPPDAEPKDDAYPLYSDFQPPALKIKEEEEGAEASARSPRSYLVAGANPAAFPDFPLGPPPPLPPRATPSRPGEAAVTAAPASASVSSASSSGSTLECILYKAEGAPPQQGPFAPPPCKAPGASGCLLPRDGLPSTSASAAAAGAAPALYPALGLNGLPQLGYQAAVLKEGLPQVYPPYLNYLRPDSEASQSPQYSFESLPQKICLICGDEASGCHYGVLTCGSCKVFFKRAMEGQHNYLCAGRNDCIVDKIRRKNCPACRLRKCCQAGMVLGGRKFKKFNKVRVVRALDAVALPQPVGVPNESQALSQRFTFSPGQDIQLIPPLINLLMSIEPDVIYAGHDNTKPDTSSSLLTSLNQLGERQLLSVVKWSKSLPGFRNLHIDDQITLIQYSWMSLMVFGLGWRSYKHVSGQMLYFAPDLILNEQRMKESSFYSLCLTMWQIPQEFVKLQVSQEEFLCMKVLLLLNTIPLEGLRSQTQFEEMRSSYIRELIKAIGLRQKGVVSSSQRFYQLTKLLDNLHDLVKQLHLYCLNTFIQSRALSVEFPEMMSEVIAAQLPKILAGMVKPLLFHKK
smiles,measurement,setting,value
Cc1nn(C2CCCC2)c(C)c1S(=O)(=O)N[C@@H](C)CNc1cccc2c1cnn2-c1ccc(F)nc1,IC50,[1],> 20 µM
same,logD,[2],3.7
same,solubility thermodynamic at 24 h,[3],1.5 µM
same,Vd,[4],15 L/kg
same,IC50,[5],> 1000 nM
same,IC50,[6],> 5 µM
same,IC50,[7],4.5 µM
